{
  "source": "patent US11166464B2",
  "about": "“Self-assembled active agents” (priority 2017, dated 2021)",
  "key": {"[1]": {"system": "A. brasiliensis ATCC16404", "assay": "MIC of aminoguanidine-aldehyde adducts, actives dissolved in all-purpose cleaner and diluted in MH broth", "format": "cell-based, Aspergillus brasiliensis", "details": "aminoguanidine adduct of the listed aldehyde; 4 × 10^5 spores/mL starting spore counts; Table 4", "method": "General procedure for preparation of actives: Complexes were formed by treating 20 mg of aldehyde or ketone with 180 mg of aminoguanidine HCl stock solution (37 wt % aminoguanidine HCl in dH2O) and heating at 60° C. for 48 h. The resulting product mixtures were subsequently screened for antimicrobial activity."}, "[2]": {"system": "Aspergillus brasiliensis (ATCC 16404)", "assay": "Viability of microbes in formula over time (log reduction in cell count)", "format": "cell-based", "details": "seven days, initial 5 × 10^6 cells/mL; for Log Reduction in APC formula: aminoguanidine complex of the listed aldehyde at 0.1 wt % in all-purpose cleaner; for Log Reduction in MDC formula: aminoguanidine complex of the listed aldehyde at 0.1 wt % in manual dish formula", "method": "[…] The total volume of the mixture was 5 mL. The inoculated mixture was kept in a shaker at 30° C. for 7 days. Microorganism viability was determined by plating […] of inoculated mixture on MH agar plates on days 0, 3, and 7.\nA. Brasiliensis cell counts were monitored and counted over seven days."}, "[3]": {"system": "Aspergillus brasillensis, ATCC16404", "assay": "Preservative test in home cleaning formulations", "format": "cell-based, Aspergillus brasiliensis", "details": "aminoguanidine adducts of the named hydrophilic aldehydes"}, "[4]": {"system": "Pseudomonas aeruginosa", "assay": "MIC and synergy (1/FICI) in cation-adjusted Mueller-Hinton broth, abs600 after 24 h", "format": "cell-based", "details": "for MIC (wt %): component alone, 24 h, 37° C.", "method": "(§1) To compare antimicrobial efficacy of self-assembled complexes to their components, fractional inhibitory concentration indices (FICIs) were calculated from measured minimum inhibitory concentrations (MICs) against Pseudomonas aeruginosa and Escherichia coli. The MIC of each substance was determined according to standard guidelines in cation-adjusted Mueller-Hinton broth at a total volume of ˜100 μl with test concentrations decreasing two-fold to span the empirically-determined MIC (J. Med. Chem., 59: 2126-2138 (2016)). Wells contained starting microbe concentrations of approximately 10^7 cells/mL. Absorbance at 600 nm (abs600) was determined immediately after inoculation using a 96 well plate reader. Plates were incubated at 37° C. and abs600 measured after 24 hours. For the purposes of these experiments, minimum inhibitory concentrations are defined as the minimum concentration observed to inhibit microbial growth over this time span, with a change in abs600 less than or equal to 0.1.\nFollowing MIC testing, FICI were calculated as shown in Equation 1: […]\nThe FICI can be used to quantify the synergy between two components (X and Y). Specifically, 1/FICI can be used as a measure of synergy, interpreted as factors by which the potency of a given combination is greater than the sum of its parts (see Journal of Antimicrobial Chemotherapy, 52:1 (2003)). For example, in the present invention, synergy may be found when the effective amount of the self-assembled active agent is lower than the sum of the effective amounts of the two or more component molecules.\n(§2) For the data in Table 2, when multiple components were used to form a complex, the amine component was present in excess of a 1:1 molar ratio.\nThe MICs determined as per above were then used to calculate FICIs. Note that 1/FICI values varied with subcomponent ratio; unless otherwise noted, the values shown in Table 3 represent a molar ratio of 6:1, amine:aldehyde."}, "[5]": {"system": "Escherichia coli", "assay": "MIC in cation-adjusted Mueller-Hinton broth, abs600 after 24 h", "format": "cell-based", "details": "amine + aldehyde combined, amine in excess of 1:1 molar ratio, E. coli", "method": "as §1, §2"}, "[6]": {"system": "A. brasiliensis ATCC16404", "assay": "MIC of aminoguanidine-aldehyde adducts, actives dissolved in all-purpose cleaner and diluted in MH broth", "format": "cell-based, Aspergillus brasiliensis", "details": "subcomponent alone (parent aldehyde, aminoguanidine or biocide standard), not the complex; Table 5"}},
  "note": "Marks after values point to notes of the source that are not given here.",
  "data": [
    {"molecule": "vanillin isobutyrate", "values": [
      {"measurement": "MIC (wt %)", "setting": "[1]", "result": 0.1190, "unit": "wt %"}
    ]},
    {"molecule": "O=Cc1ccc(C=O)s1", "note": "[2,5-thiophenedicarboxaldehyde]", "values": [
      {"measurement": "Log Reduction in APC formula", "setting": "[2]", "result": 2},
      {"measurement": "Log Reduction in MDC formula", "setting": "[2]", "result": 1}
    ]},
    {"molecule": "2,6-dimethoxybenzaldehyde", "values": [
      {"measurement": "Preservation of the high surfactant manual dish formula", "setting": "[3]", "result": "enabled effective preservation"},
      {"measurement": "MIC (wt %)", "setting": "[1]", "result": 0.0149, "unit": "wt %"}
    ]},
    {"molecule": "O=Cc1cc(C=O)cc(C=O)c1", "note": "[Entry 7, benzene-1,3,5-tricarboxaldehyde]", "values": [
      {"measurement": "MIC (wt %)", "setting": "[4]; P. aeruginosa", "result": "0.3^i wt %"},
      {"measurement": "Synergism (1/FICI) with B, extrapolated", "setting": "[4]; extrapolated from eight FICI measurements where the weight ratio of B:7 varied from 1:1 to 9:1", "result": "1000*"}
    ]},
    {"molecule": "m-anisaldehyde", "values": [
      {"measurement": "Preservation of the high surfactant manual dish formula", "setting": "[3]", "result": "enabled effective preservation"},
      {"measurement": "MIC (wt %)", "setting": "[1]", "result": 0.0595, "unit": "wt %"}
    ]},
    {"molecule": "COc1ccc(C=O)c(OC)c1", "note": "[2,4-dimethoxybenzaldehyde]", "values": [
      {"measurement": "Log Reduction in APC formula", "setting": "[2]", "result": 6},
      {"measurement": "Log Reduction in MDC formula", "setting": "[2]", "result": 1}
    ]},
    {"molecule": "4-hydroxybenzaldehyde", "values": [
      {"measurement": "Preservation of the high surfactant manual dish formula", "setting": "[3]", "result": "enabled effective preservation"},
      {"measurement": "MIC (wt %)", "setting": "[1]", "result": 0.0298, "unit": "wt %"}
    ]},
    {"molecule": "Cl.N=C(NN)NN", "note": "[A, 1,3-diaminoguanidine]", "values": [
      {"measurement": "MIC (wt %)", "setting": "[4]; P. aeruginosa", "result": "0.3^i wt %"}
    ]},
    {"molecule": "2-hydroxyl-4-methoxybenzaldehyde", "values": [
      {"measurement": "MIC (wt %)", "setting": "[1]", "result": 0.0149, "unit": "wt %"},
      {"measurement": "Log Reduction in APC formula", "setting": "[2]", "result": 1},
      {"measurement": "Log Reduction in MDC formula", "setting": "[2]", "result": 1}
    ]},
    {"molecule": "Cc1cc(C=NN=C(N)N)c(O)c(C=NN=C(N)N)c1", "note": "[B + 10]", "values": [
      {"measurement": "MIC (wt %) of complex, given as aldehyde component", "setting": "[5]; concentration of aldehyde component", "result": "0.002^ii wt %"},
      {"measurement": "MIC (wt %) of complex, given as amine component", "setting": "[5]; concentration of amine component", "result": "0.02^ii wt %"}
    ]},
    {"molecule": "O=Cc1ccc(C=O)cc1", "note": "[Entry 5, terephthalaldehyde]", "values": [
      {"measurement": "MIC (wt %)", "setting": "[4]; P. aeruginosa", "result": "0.3^i wt %"}
    ]},
    {"molecule": "2,4,6-trimethoxybenzaldehyde", "values": [
      {"measurement": "Preservation of the high surfactant manual dish formula", "setting": "[3]", "result": "enabled effective preservation"},
      {"measurement": "MIC (wt %)", "setting": "[1]", "result": 0.0595, "unit": "wt %"}
    ]},
    {"molecule": "O=Cc1ccc(C=O)o1", "note": "[2,5-furandicarboxaldehyde]", "values": [
      {"measurement": "Log Reduction in APC formula", "setting": "[2]", "result": 1},
      {"measurement": "Log Reduction in MDC formula", "setting": "[2]", "result": 1}
    ]},
    {"molecule": "aminoguanidine [B]", "values": [
      {"measurement": "MIC (wt %)", "setting": "[4]; P. aeruginosa", "result": ">2^i wt %"},
      {"measurement": "MIC (wt %) subcomponent", "setting": "[6]", "result": ">0.4762", "unit": "wt %"}
    ]},
    {"molecule": "NC(N)=NN=Cc1ccc(C=NN=C(N)N)cc1", "note": "[B + 5]", "values": [
      {"measurement": "MIC (wt %) of complex, given as aldehyde component", "setting": "[4]; amine + aldehyde combined, amine in excess of 1:1 molar ratio, concentration of aldehyde component, P. aeruginosa", "result": "0.01^i wt %"},
      {"measurement": "MIC (wt %) of complex, given as amine component", "setting": "[4]; amine + aldehyde combined, amine in excess of 1:1 molar ratio, concentration of amine component, P. aeruginosa", "result": "0.06^i wt %"}
    ]},
    {"molecule": "O=Cc1cccc(C=O)c1Br", "note": "[2-bromoisophthalaldehyde]", "values": [
      {"measurement": "Log Reduction in APC formula", "setting": "[2]", "result": 2},
      {"measurement": "Log Reduction in MDC formula", "setting": "[2]", "result": 1}
    ]},
    {"molecule": "glyoxal [Entry 1]", "values": [
      {"measurement": "MIC (wt %)", "setting": "[4]; P. aeruginosa", "result": "0.04^i wt %"}
    ]}
  ]
}
